Measured values as given in patent US20210145801A1, “THERAPY FOR PROTEIN MISFOLDING DISEASE” (WREN THERAPEUTICS LIMITED, priority 2018, published 2021).
Entries after “also recorded” stand apart in the source; their conditions may differ.

Legend:
Aβ40 = target: T1, Aβ40 (Homo sapiens, UniProt P05067); test: Aβ40 aggregation kinetics; type: biochemical; settings: 10 μM Aβ40; 1.25-fold excess
T1 construct: similar kinetics experiments were performed on the 40-residue isoform, Aβ40
Procedure: For the experiments monitoring Aβ40 aggregation kinetics, the experiments were performed similarly to those described above for Aβ42 at a concentration of 10 μM of Aβ40 in the absence or presence of 1.25-fold excess of Netoglitazone.

AD worms (GMC101) = test: Automated motility assay (WF-NTP) in AD worms; type: in vivo, C. elegans
Procedure: Standard conditions were used for the propagation of C. elegans (S. Brenner, The genetics of Caenorhabditis elegans. Genetics. 77, 71-94 (1974)). Briefly, the animals were synchronized by hypochlorite bleaching, hatched overnight in M9 buffer (3 g/l KH2PO4, 6 g/l Na2HPO4, 5 g/l NaCl, […]), and subsequently cultured at 20° C. on nematode growth medium (NGM) (CaCl2) 1 mM, MgSO4 1 mM, cholesterol 5 μg/mL, PBS Buffer (250 μM KH2PO4, 67.5 μM KCl, 3.425 mM of NaCl, pH 6), Agar 17 g/L, NaCl 3 g/1, casein 7.5 g/l) plates seeded with the E. coli strain OP50. Saturated cultures of OP50 were grown by inoculating 50 ml of LB medium (tryptone 10 g/l, NaCl 10 g/1, yeast extract 5 g/l) with OP50 and incubating the culture for 16 h at 37° C. NGM plates were seeded with bacteria by adding 350 μl of saturated OP50 to each plate and leaving the plates at 20° C. for 2-3 days. On day 3 after synchronisation, the animals were placed on NGM plates containing 5-fluoro-2′deoxy-uridine (FUDR) (75 μM, unless stated otherwise) to inhibit the growth of offspring.
GMC101 dvIs100 [unc-54p::A-beta-1-42::unc-54 3′UTR+mtl-2p::GFP]. mtl-2p::GFP produces constitutive expression of GFP in intestinal cells. unc-54p::A-beta-1-42 expresses full-length human Aβ42 peptide in body wall muscle cells that aggregates in vivo. […]
(§1) All C. elegans populations were cultured at 20° C. and developmentally synchronized from a 4 h egg-lay. At 64-72 h post-egg-lay (time zero), individuals were transferred to FUDR plates, and body movements were assessed over the times indicated. At different ages, the animals were washed off the plates with M9 buffer and spread over an OP-50 unseeded 9 cm plate, after which their movements were recorded at 20 fps using a recently developed microscopic procedure (M. Perni et al., Massively parallel C. elegans tracking provides multi-dimensional fingerprints for phenotypic discovery. J. Neurosci. Methods. 306, 57-67 (2018)) for 1 min. Up to 600 animals were counted in each experiment in duplicate unless stated otherwise. One experiment that is representative of the three or more measured in each series of experiments is shown, and videos were analysed using a custom-made tracking code (M. Perni et al., Massively parallel C. elegans tracking provides multi-dimensional fingerprints for phenotypic discovery. J. Neurosci. Methods. 306, 57-67 (2018)).
In order to screen for the effect of therapeutics in the most robust way, a wide field-of-view nematode-tracking platform (WF-NTP) was used, which enables the simultaneous investigation of multiple phenotypic readouts on large worm populations. The WF-NTP monitors up 5000 animals in parallel, and the phenotypical readout includes multiple parallel parameters.

[1] = system: Aβ1-42Neur worms (CL2355); test: Automated motility assay in Aβ1-42Neur worms; type: in vivo, C. elegans; settings: vs untreated worms
Procedure: Briefly, Netoglitazone stocks (5 mM in 100% DMSO) were used at an appropriate concentration to seed 9-cm NGM plates. Plates were then placed in a laminar flow hood at room temperature (22° C.) for up to 4 hours to dry. C. elegans cultures were then transferred onto media seeded with compound as L4 stage or Day 3 for late treatments and incubated at 24° for the whole experiment. Experiments were carried out at different Netoglitazone concentrations ranging from 0.05 to 500 μM in 1% DMSO. As controls, plates seeded only with 1% DMSO were used.
as §1, with “One experiment that is representative of the three or more measured in each series of experiments is shown, and videos were analysed using a custom-made tracking code (M. Perni et al., Massively parallel C. elegans tracking provides multi-dimensional fingerprints for phenotypic discovery. J. Neurosci. Methods. 306, 57-67 (2018)).” left out

[2] = administered at D3, read at D5 of adulthood

T1 sequence (P05067 672-711 limits assumed): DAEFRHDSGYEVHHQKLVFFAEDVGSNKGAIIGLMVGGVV

O=C1NC(=O)C(Cc2ccc3cc(OCc4ccccc4F)ccc3c2)S1 (stereo not drawn) [Netoglitazone]
Inhibition of Aβ40 aggregation (Aβ40): able to inhibit Aβ40 aggregation similarly to the 42-residue isoform | Motility of AD worms after late administration (AD worms (GMC101); [2]): increase of the worm's mobility; also recorded: improves motility | Survival rate of AD worms after late administration (AD worms (GMC101); [2]): increase of the worm's mobility and survival rate; also recorded: improves motility (i) and survival rates | Recovery of dysfunctional phenotype / mobility of AD worms (AD worms (GMC101); administered at L4, 0.05-10 μM): dose dependent and statistically significant recovery in the dysfunctional phenotype | Concentration range of best/maximum protective effect on mobility (AD worms (GMC101); administered at L4, D3 of adulthood): 0.5 to 5 µM | Motility of Aβ1-42Neur worms [1]: significantly improves the (A) chemotaxis index and (B) motility
